In assay [1] the test system is SNU-398. As to the kind of experiment: Cytotoxicity against human SNU398 cells. The assay is classed as functional.
The subject of assay [2] is HCT-116. Nature of the assay: Cytotoxicity against human HCT116 cells. It counts as functional.
The subject of assay [3] is T47D. Nature of the assay: Induction of apoptosis in human T47D cells assessed as caspase activation by HTS assay. The assay is classed as functional, cell-based.
Assay [4] relates to HCT-116. As to the kind of experiment: Induction of apoptosis in human HCT116 cells assessed as caspase activation by HTS assay. The assay is classed as functional, cell-based.
Assay [5] has as its system SNU-398. As to the kind of experiment: Induction of apoptosis in human SNU398 cells assessed as caspase activation by HTS assay. It counts as functional, cell-based.
The subject of assay [6] is T47D. As to the kind of experiment: Cytotoxicity against human T47D cells. The assay is classed as functional.
In assay [7] the test system is HCT-116. As to the kind of experiment: Cell cycle arrest in human HCT116 cells assessed as increase in G2/M phase population at 100 nM after 24 hrs by flow cytometry. The assay is classed as functional. (Flow cytometry measures light scatter and fluorescence of single cells or particles in a stream.)
The test system of assay [8] is HCT-116. As to the kind of experiment: Cell cycle arrest in human HCT116 cells assessed as increase in subG1 phase population at 100 nM after 24 hrs by flow cytometry. It counts as functional.
Assay [9] deals with HCT-116. As to the kind of experiment: Cell cycle arrest in human HCT116 cells assessed as increase in subG1 phase population at 100 nM after 48 hrs by flow cytometry. The assay is classed as functional.

This note sets out measurements from ChEMBL document CHEMBL1143443, “Discovery of (naphthalen-4-yl)(phenyl)methanones and N-methyl-N-phenylnaphthalen-1-amines as new apoptosis inducers using a cell- and caspase-based HTS assay” (Bioorg Med Chem Lett, 2008).

Bounds are passed on as bounds.

As to `COc1ccc(N(C)c2ccc(N(C)C)c3ccccc23)cc1`, the GI50 (usually the concentration that inhibits growth by half) worked out at 150 nM in the assay on SNU-398 [1], 320 nM in the assay with HCT-116 [2] and 260 nM in the assay on T47D [6]. Moreover, the EC50 (in general, the midpoint of the concentration-response curve) in the assay on T47D [3] turned out to be 510 nM; in the assay on HCT-116 [4], 610 nM; in the assay on SNU-398 [5], 720 nM.
For `COc1cc(C(=O)c2ccc(N(C)C)c3ccccc23)cc(OC)c1OC`, the EC50 in the assay with T47D [3] stood at 420 nM; in the assay on HCT-116 [4] it was 1200 nM; in the assay with SNU-398 [5], 570 nM.
Take `COc1ccc(C(=O)c2ccc([N+](=O)[O-])cc2)c2ccccc12`: the EC50 in the assay on T47D [3], with HCT-116 [4] and in the assay on SNU-398 [5] was over 10000 nM throughout.
For the compound `COc1ccc(C(=O)c2ccc(N(C)C)cc2)c2ccccc12`, the figures for the EC50 with T47D [3], in the assay with HCT-116 [4] and with SNU-398 [5] were 810 nM, 1200 nM and 980 nM, respectively.
Regarding `COc1ccc(C(=O)c2ccc(N(C)C)c3ccccc23)cc1OC`, the EC50 in the assay on T47D [3] was 470 nM; in the assay with HCT-116 [4], 650 nM; in the assay with SNU-398 [5], 560 nM.
Turning to `COc1ccc(N(C)c2ccc([N+](=O)[O-])c3ccccc23)cc1`, the EC50 in the assay with T47D [3] was 240 nM; in the assay with HCT-116 [4], 280 nM; with SNU-398 [5] it was 330 nM.
For the compound `COc1cccc(N(C)c2ccc(N(C)C)c3ccccc23)c1`, the results for the concentration giving a half-maximal response (EC50) in the assay with T47D [3], in the assay on HCT-116 [4] and with SNU-398 [5] were 4400 nM, 4600 nM and 4700 nM, respectively.
For the compound `CN(C)c1ccc(C(O)c2ccc(N(C)C)c3ccccc23)cc1` (stereo not given), the figures for the EC50 with T47D [3], with HCT-116 [4] and in the assay on SNU-398 [5] were 380 nM, 490 nM and 520 nM, respectively.
Consider `COc1ccc(N(C)c2ccc(N)c3ccccc23)cc1`, for which the EC50 in the assay on T47D [3] was found to be 12000 nM; with HCT-116 [4], 11000 nM; in the assay on SNU-398 [5] it was 5300 nM.
Turning to `COc1ccc(C(=O)c2ccc(N(C)C)c3ccccc23)cc1`, the results for the GI50 with SNU-398 [1], with HCT-116 [2] and with T47D [6] were 27 nM, 100 nM and 39 nM, respectively. For the same compound, the 50% effective concentration (EC50) in the assay with T47D [3] came to 72 nM; in the assay on HCT-116 [4], 86 nM; with SNU-398 [5] it was 74 nM.
As for `CN(C)c1ccc(C(=O)c2ccc(N(C)C)c3ccccc23)cc1`, the GI50 with SNU-398 [1] turned out to be 27 nM; in the assay with HCT-116 [2] it was 68 nM; in the assay with T47D [6], 34 nM. Further, the Activity with HCT-116 [7] is recorded as 12%; in the assay on HCT-116 [8], 4%; in the assay on HCT-116 [9] it was 53%. Moreover, the values for the EC50 in the assay with T47D [3], in the assay with HCT-116 [4] and with SNU-398 [5] were 37 nM, 49 nM and 44 nM, respectively.
For the compound `COc1cc(OC)cc(C(=O)c2ccc(N(C)C)c3ccccc23)c1`, the EC50 in the assay on T47D [3] came out at 1300 nM; with HCT-116 [4] it was 1900 nM; with SNU-398 [5], 1500 nM.
`COc1cccc(C(=O)c2ccc(N(C)C)c3ccccc23)c1`: the EC50 in the assay with T47D [3] worked out at 2600 nM; with HCT-116 [4], 5100 nM; with SNU-398 [5], 3500 nM.
For the compound `COc1ccc(C(OC)c2ccc(N(C)C)c3ccccc23)cc1` (stereo not given), the 50% effective concentration (EC50) was 590 nM in the assay with T47D [3], 620 nM in the assay with HCT-116 [4] and 760 nM in the assay on SNU-398 [5].
`COc1ccc(C(O)c2ccc(N(C)C)c3ccccc23)cc1` (stereo not given): the GI50 with SNU-398 [1] is 170 nM; in the assay with HCT-116 [2], 490 nM; in the assay on T47D [6], 230 nM. The EC50 in the assay with T47D [3] was determined as 140 nM; in the assay on HCT-116 [4], 260 nM; with SNU-398 [5], 170 nM.
